Test results as given in patent US6916844B2, “Hydroxy pyranone derivative and preparation method thereof” (Amorepacific Corporation, priority 2002, dated 2005).

Experiments:
[1] = test system: Human fibroblasts; test: Effect on biosynthesis of collagen (procollagen type (I) ELISA); format: cell-based; conditions: 10^-4 M, 24 hours, relative to untreated control group = 100
Procedure: The effect of the hydroxy pyranone derivatives obtained in Examples 1˜6 on biosynthesis of collagen was compared with those of retinol and retinoic acid.
Human fibroblasts were seeded into a 24-well plate to a density of 10^5 cells/well and then cultured to 90% of growth. The plate was washed with PBS (phosphate buffered saline) and treated with test samples at a concentration of 10^−4M, and then incubated in a CO2 incubator for 24 hours. From its supernatant, procollagen production was measured with procollagen type (I) ELISA kit. The biosynthesis of collagen was evaluated as a relative value compared with that of the control group, which is not treated with sample and of which the value of biosyntheis of collagen was set to be 100.

[2] = test system: white guinea pigs; test: Phototoxicity test; format: in vivo; conditions: 1% (w/v) solution, UVA 15 J/cm^2, observed at 24, 48 and 72 hours; for Phototoxic index: below 0.5 = no phototoxicity
Procedure: This test was performed for ten (10) white guinea pigs whose hairs on both sides of the backs were cut, and fixed. On the back of the guinea pig, six (6) test sites measuring 2.5 cm×2.5 cm, three (3) per each side, were sectioned. Right sites were prepared as controls with no irradiation (UV non-irradiation sites) and left sites were irradiated (UV irradiation sites). Vehicle (1,3-butylene glycol:ethanol=7:3) was used as a negative control, and 0.1% concentration of 8-MOP (methoxypsoralene) was used as a positive control; and 1% (w/v) solutions of the compounds of Examples 1˜6 were applied to either site with an amount of […] for each site. 30 minutes later, right sites were shielded with aluminum foil and UVA(320˜380 nm) was irradiated at a distance of about 10 cm therefrom with Waldmann to the final energy of 15 J/cm^2. After 24, 48 and 72 hours elapsed, skin response of guinea pig was observed. Erythema and edema were scored from 0 to 4 points as shown in the Table 3, and skin response was evaluated by summing the scores. Maximum scores were selected when measured on each elapsed time, i.e. 24, 48 and 72 hours, and irritation index was calculated according to the following equation 2. Then, phototoxic index was calculated according to the following equation 3.
[Equation 2] Irritation index=(Maximum of erythema+Maximum of edema)/Number of animals [Equation 3] Phototoxic index=(Irritation index of UV irradiation site)−(Irritation index of UV non-irradiation site)

[3] = test system: healthy females and males; test: Human patch test; format: in vivo; conditions: 1% in patch base; for Average Response (n = 30): calculated by equation 4, below 1 = no irritation; for Number of the subjected showing response, 24 hours later, − (No visible response) / Number of the subjected showing response, 24 hours later, ± (Mild erythema) / Number of the subjected showing response, 24 hours later, + (Intense erythema) / Number of the subjected showing response, 24 hours later, + + (Intense erythema with edema) / Number of the subjected showing response, 24 hours later, + + + (Intense erythema with edema and vesicle): n = 30, 24 hours later; for Number of the subjected showing response, 24 hours later, − (No visible response) / Number of the subjected showing response, 48 hours later, − (No visible response): grade 0; for Number of the subjected showing response, 24 hours later, ± (Mild erythema) / Number of the subjected showing response, 48 hours later, ± (Mild erythema): grade 1; for Number of the subjected showing response, 24 hours later, + (Intense erythema) / Number of the subjected showing response, 48 hours later, + (Intense erythema): grade 2; for Number of the subjected showing response, 24 hours later, + + (Intense erythema with edema) / Number of the subjected showing response, 48 hours later, + + (Intense erythema with edema): grade 3; for Number of the subjected showing response, 24 hours later, + + + (Intense erythema with edema and vesicle) / Number of the subjected showing response, 48 hours later, + + + (Intense erythema with edema and vesicle): grade 4; for Number of the subjected showing response, 48 hours later, − (No visible response) / Number of the subjected showing response, 48 hours later, ± (Mild erythema) / Number of the subjected showing response, 48 hours later, + (Intense erythema) / Number of the subjected showing response, 48 hours later, + + (Intense erythema with edema) / Number of the subjected showing response, 48 hours later, + + + (Intense erythema with edema and vesicle): n = 30, 48 hours later
Procedure: This test was performed for thirty (30) healthy females and males aged on average 24.8 years and having no experience of hypersensitivity, according to method of CTFA Guideline (The Cosmetic, Toiletry and Fragrance Association. Inc. Washington, D.C., 20023, 1991). Each compound of Examples 1˜6 was dissolved in patch base having the composition of Table 6 to be 1% concentration as for test materials, and 20 μl of each test materials was dropped into a Finn chamber respectively, then attached to the forearm of the subject and fixed with a micropore tape. After 24 hours of patching, the patches were removed and the test sites were marked with marking pen. The observations of the test sites were made after 24 and 48 hours from the patching.
The average response of Table 8 was calculated by the following equation 4. [formula]

[4] = test system: rabbits; test: Primary skin irritation test on animals (Draize P.I.I.); format: in vivo; conditions: 1% in 1,3-butylene glycol:ethanol=7:3, 0.5 ml, observed 24 and 72 hours later
Procedure: This test was performed for six (6) healthy male rabbits whose hairs on both sides of the backs were cut. The compounds of Examples 1˜6 were dissolved in 1,3-butylene glycol:ethanol=7:3, to obtain 1% concentration of test samples. 0.5 ml of each test samples were applied to right side area of 2.5 cm×2.5 cm. No sample was treated on left side as a control. 24 hours and 72 hours later, skin abnormality such as erythema, crust and edema was observed. Based on the score of skin response, skin irritation was estimated according to Draize's P.I.I. (Primary Irritation Index) and compared with that of retinoic acid.

[5] = test system: Human fibroblasts; test: Collagenase-inhibiting effect (collagenase expression, ELISA kit); format: cell-based; conditions: 10^-4 M, 24 hours, relative to untreated control group = 100
Procedure: The collagenase-inhibiting effect of hydroxy pyranone derivatives obtained in Examples 1˜6 was compared with those of retinol and retinoic acid.
Human fibroblasts were cultured in Dulbecco's Modified Eagle's Medium (DMEM) supplemented with 2.5% fetal bovine serum. The fibroblasts were seeded into a 96-well microtiter plate to a density of 5,000 cells/well, and then cultured to 70˜80% of growth. The plate was treated with test samples at a concentration of 10^−4M for 24 hours, then the cultured medium and the cells were raked up and recovered. From the recovered culture, collagenase production was measured with collagenase kit (Catalog #: RPN 2610) commercialized by Amersham Pharmacia Biotech. First, the recovered culture was added into a 96-well plate wherein primary collagenase antibodies were uniformly spread, and then antigen-antibody reaction was performed in an incubator for 3 hours. Later, secondary collagenase antibodies bonded with chromophore were added to the 96-well plate and reacted for 15 minutes. Then, color former was added thereto in order to induce development at the room temperature for 15 minutes, and 1M of sulfuric acid was added to stop the reaction. The reaction solution became yellow, and the color density depends on the progress of the reaction. The absorbance of the yellow 96-well plate was measured at 405 nm with absorptiometer. The expression of collagenase was calculated by the following equation 1. No sample was treated in the control group.
[Equation 1] The expression of collagenase (%)=[(Absorbance of test group)/(Absorbance of control group)]×100
The expression of collagenase was evaluated as a relative value compared with that of the control group of which the expression of collagenase was set to be 100.

Compound	Number of the subjected showing response, 24 hours later, − (No visible response) [3]	Number of the subjected showing response, 24 hours later, ± (Mild erythema) [3]	Number of the subjected showing response, 24 hours later, + (Intense erythema) [3]	Number of the subjected showing response, 24 hours later, + + (Intense erythema with edema) [3]	Number of the subjected showing response, 24 hours later, + + + (Intense erythema with edema and vesicle) [3]	Number of the subjected showing response, 48 hours later, − (No visible response) [3]	Number of the subjected showing response, 48 hours later, ± (Mild erythema) [3]	Number of the subjected showing response, 48 hours later, + (Intense erythema) [3]	Number of the subjected showing response, 48 hours later, + + (Intense erythema with edema) [3]	Number of the subjected showing response, 48 hours later, + + + (Intense erythema with edema and vesicle) [3]	Expression of collagenase (%) [5]	Biosynthesis of collagen (%) [1]	Evaluation (phototoxicity) [2]	Phototoxic index [2]	Average Response (n = 30) [3]	Evaluation (skin irritation) [4]	P. I. I. (Primary Irritation Index) [4]
O=C(Oc1cc(=O)c(O)co1)c1ccc2c(c1)OCCO2 [Compound of Ex. 2, (5-hydroxy-4-oxo-4H-pyran-2-yl) 2H,3H-benzo [3,4-e] 1,4-dioxane-6-carboxylate]	30	0	0	0	0	29	1	0	0	0	81%	121%	No phototoxicity	0	0.42	No irritation	0.345
CC1=C(/C=C/C(C)=C/C=C/C(C)=C/CO)C(C)(C)CCC1 [Retinol, reference compound]											82%	120%					
CC1=C(/C=C/C(C)=C/C=C/C(C)=C/C(=O)O)C(C)(C)CCC1 [Retinoic acid, reference compound]											75%	125%				Light irritation	1.830
O=C(OCc1cc(=O)c(O)co1)c1ccc2c(c1)OCO2 [Compound of Ex. 1, (5-hydroxy-4-oxo-4H-pyran-2-yl)methyl 2H-benzo [3,4-d] 1,3-dioxolan-5-carboxylate]	28	2	0	0	0	30	0	0	0	0	83%	118%	No phototoxicity	0	0.83	No irritation	0.375
((3E)-4-(2H,3H-benzo [3,4-d] 1,3-dioxolan-5-yl)-2-oxobut-3-enyloxy)-5-hydroxy-4H-pyran-4-one [Compound of Ex. 3]	30	0	0	0	0	30	0	0	0	0	78%	123%	No phototoxicity	0	0.00	No irritation	0.375

Continued, in another order:

Number of the subjected showing response, 24 hours later, − (No visible response) [3]	Number of the subjected showing response, 24 hours later, ± (Mild erythema) [3]	Number of the subjected showing response, 24 hours later, + (Intense erythema) [3]	Number of the subjected showing response, 24 hours later, + + (Intense erythema with edema) [3]	Number of the subjected showing response, 24 hours later, + + + (Intense erythema with edema and vesicle) [3]	Number of the subjected showing response, 48 hours later, − (No visible response) [3]	Number of the subjected showing response, 48 hours later, ± (Mild erythema) [3]	Number of the subjected showing response, 48 hours later, + (Intense erythema) [3]	Number of the subjected showing response, 48 hours later, + + (Intense erythema with edema) [3]	Number of the subjected showing response, 48 hours later, + + + (Intense erythema with edema and vesicle) [3]	Expression of collagenase (%) [5]	Compound	Biosynthesis of collagen (%) [1]	Evaluation (phototoxicity) [2]	Phototoxic index [2]	Average Response (n = 30) [3]	Evaluation (skin irritation) [4]	P. I. I. (Primary Irritation Index) [4]
30	0	0	0	0	30	0	0	0	0	88%	O=c1cc(/C=C/c2ccc3c(c2)OCO3)occ1O [Compound of Ex. 5, 2-((1E)-2-(2H,3H-benzo [3,4-d] 1,3-dioxolan-5-yl)vinyl)-5-hydroxy-4H-pyran-4-one]	116%	No phototoxicity	0	0.00	No irritation	0.375
30	0	0	0	0	30	0	0	0	0	84%	O=c1cc(/C=C/c2ccc3c(c2)OCCO3)occ1O [Compound of Ex. 6, 2-((1E)-2-(2H,3H-benzo [3,4-e] 1,4-dioxan-6-yl)vinyl)-5-hydroxy-4H-pyran-4-one]	115%	No phototoxicity	0	0.00	No irritation	0.315
